This passage reports EC50 results from BindingDB's records for doi:10.1016/s0960-894x(03)00407-4 (Guilford Pharmaceuticals, 2003).

A word on the pEC50: it is the EC50 on a negative log10 scale, so that one unit is a factor of ten.

Structures are written as SMILES. pEC50: −log10 of the molar value.

This assay is described as follows: Concentration required for the neuroprotective effect determined by inhibition of GCP II.
For the compound `O=C(O)CCC(CP(=O)(O)Cc1c(F)c(F)c(F)c(F)c1F)C(=O)O` (racemic), the negative logarithm of the EC50 (pEC50) was 8.02.

The compound `O=C(O)CCC(CCCC(=O)NO)C(=O)O` (stereo not drawn) [2-(3-Hydroxycarbamoyl-propyl)-pentanedioic acid] had a negative logarithm of the EC50 (pEC50) of 5.96.

Compound `O=C(O)CCC(CC(=O)NO)C(=O)O` (stereo not drawn) [2-[(hydroxycarbamoyl)methyl]pentanedioic acid] had a pEC50 of 6.66.
